This passage reports IC50 results from patent publication US20170240556A1, “BIFLUORODIOXALANE-AMINO-BENZIMIDAZOLE KINASE INHIBITORS FOR THE TREATMENT OF CANCER, AUTOIMMUNEINFLAMMATION AND CNS DISORDERS” (4SC DISCOVERY GMBH, priority 2012, published 2017).

Bounds are passed on as bounds.

Usually IC50 stands for the point on the concentration scale where inhibition reaches its midpoint.

The target in assay [1] is Casein kinase 1 delta (CSKN1D) (Homo sapiens, UniProt P48730). Put plainly: Casein kinase assay, CK1 delta. Particulars: recombinant CSKN1D 5 nM, ATP 10 μM. In kind it is biochemical.
Sequence of Casein kinase 1 delta (CSKN1D) (P48730 whole entry): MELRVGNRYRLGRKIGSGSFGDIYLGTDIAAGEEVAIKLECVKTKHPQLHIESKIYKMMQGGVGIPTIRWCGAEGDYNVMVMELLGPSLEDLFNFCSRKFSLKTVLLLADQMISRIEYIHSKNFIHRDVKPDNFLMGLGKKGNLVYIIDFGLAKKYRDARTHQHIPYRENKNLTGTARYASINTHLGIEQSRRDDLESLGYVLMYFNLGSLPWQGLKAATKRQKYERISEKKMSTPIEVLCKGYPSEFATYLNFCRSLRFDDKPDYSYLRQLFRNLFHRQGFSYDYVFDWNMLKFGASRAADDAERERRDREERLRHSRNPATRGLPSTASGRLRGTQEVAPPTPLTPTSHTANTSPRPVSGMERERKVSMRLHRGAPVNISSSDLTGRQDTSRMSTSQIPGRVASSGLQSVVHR
Assay [2] concerns the target Casein kinase 1 epsilon (CSKN1E) (Homo sapiens, UniProt P49674). Briefly: Casein kinase assay, CK1 epsilon. It counts as biochemical. Particulars: recombinant CSKN1E 30 nM, ATP 10 μM.

Sequence of Casein kinase 1 epsilon (CSKN1E) (P49674 whole entry): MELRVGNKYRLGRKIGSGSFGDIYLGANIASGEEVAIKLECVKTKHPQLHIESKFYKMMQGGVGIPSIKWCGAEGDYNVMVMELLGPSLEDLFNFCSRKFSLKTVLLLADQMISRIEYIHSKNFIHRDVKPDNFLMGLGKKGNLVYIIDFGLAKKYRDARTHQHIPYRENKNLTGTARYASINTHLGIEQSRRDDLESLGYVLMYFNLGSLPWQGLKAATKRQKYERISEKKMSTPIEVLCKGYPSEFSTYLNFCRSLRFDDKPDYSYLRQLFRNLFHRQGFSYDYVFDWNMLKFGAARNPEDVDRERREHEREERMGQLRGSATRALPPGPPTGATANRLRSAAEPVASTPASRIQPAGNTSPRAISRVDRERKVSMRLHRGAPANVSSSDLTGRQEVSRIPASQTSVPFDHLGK

In the case of `O=C(Nc1nc2cc3c(cc2[nH]1)OC(F)(F)O3)c1csc(Br)n1` [Compound 55, 2-bromo-N-(2,2-difluoro-5H-[1,3]dioxolo[4′,5′:4,5]benzo[1,2-d]imidazol-6-yl)thiazole-4-carboxamide], the IC50 in assay [1] and in assay [2] was 200 to 1000 nM each time.
Take `Cc1nn(-c2ccc(Cl)c(Cl)c2)c(C)c1C(=O)Nc1nc2cc3c(cc2[nH]1)OC(F)(F)O3` [Compound 14, 1-(3,4-dichlorophenyl)-N-(2,2-difluoro-5H-[1,3]dioxolo[4′,5′:4,5]benzo[1,2-d]imidazol-6-yl)-3,5-dimethyl-1H-pyrazole-4-carboxamide]: the IC50 in assay [1] and in assay [2] was > 1000 nM each time.
As for `Cc1ccc(C(=O)Nc2nc(C(=O)Nc3nc4cc5c(cc4[nH]3)OC(F)(F)O5)ns2)cc1` [Compound 89, N-(2,2-difluoro-5H-[1,3]dioxolo[4′,5′:4,5]benzo[1,2-d]imidazol-6-yl)-5-(4-methylbenzamido)-1,2,4-thiadiazole-3-carboxamide], the IC50 in assay [1] and in assay [2] was 200 to 1000 nM in each case.
For `O=C(Nc1nc2cc3c(cc2[nH]1)OC(F)(F)O3)c1coc(N2CCOCC2)n1` [Compound 24, N-(2,2-difluoro-5H-[1,3]dioxolo[4′,5′:4,5]benzo[1,2-d]imidazol-6-yl)-2-morpholinooxazole-4-carboxamide], the IC50 in assay [1] and in assay [2] was 200 to 1000 nM throughout.
For `O=C(Nc1nc2cc3c(cc2[nH]1)OC(F)(F)O3)c1cccc(Cl)c1` [Compound 41, 3-chloro-N-(2,2-difluoro-5H-[1,3]dioxolo[4′,5′:4,5]benzo[1,2-d]imidazol-6-yl)benzamide], the 50% inhibitory concentration (IC50) in assay [1] and in assay [2] was < 200 nM in each case.
As for `O=C(Nc1n[nH]c(C(=O)Nc2nc3cc4c(cc3[nH]2)OC(F)(F)O4)n1)c1ccc([N+](=O)[O-])cc1` [Compound 61, N-(2,2-difluoro-5H-[1,3]dioxolo[4′,5′:4,5]benzo[1,2-d]imidazol-6-yl)-3-(4-nitrobenzamido)-1H-1,2,4-triazole-5-carboxamide], the IC50 in assay [1] and in assay [2] was > 1000 nM in each case.
Consider `O=C(Nc1nc2cc3c(cc2[nH]1)OC(F)(F)O3)c1cscn1` [Compound 44, N-(2,2-difluoro-5H-[1,3]dioxolo[4′,5′:4,5]benzo[1,2-d]imidazol-6-yl)thiazole-4-carboxamide], for which the IC50 in assay [1] and in assay [2] was 200 to 1000 nM each time.
`NS(=O)(=O)c1cc(C(=O)Nc2nc3cc4c(cc3[nH]2)OC(F)(F)O4)cs1` [Compound 83, N-(2,2-difluoro-5H-[1,3]dioxolo[4′,5′:4,5]benzo[1,2-d]imidazol-6-yl)-5-sulfamoylthiophene-3-carboxamide]: the IC50 in assay [1] and in assay [2] was < 200 nM in each case.
Turning to `COc1ccc(OC)c(S(=O)(=O)Nc2nc(C(=O)Nc3nc4cc5c(cc4[nH]3)OC(F)(F)O5)cs2)c1` [Compound 19, N-(2,2-difluoro-5H-[1,3]dioxolo[4′,5′:4,5]benzo[1,2-d]imidazol-6-yl)-2-(2,5-dimethoxyphenylsulfonamido)thiazole-4-carboxamide], the IC50 in assay [1] and in assay [2] was < 200 nM in each case.
For `Cc1nnsc1C(=O)Nc1nc2cc3c(cc2[nH]1)OC(F)(F)O3` [Compound 42, N-(2,2-difluoro-5H-[1,3]dioxolo[4′,5′:4,5]benzo[1,2-d]imidazol-6-yl)-4-methyl-1,2,3-thiadiazole-5-carboxamide], the IC50 in assay [1] and in assay [2] was > 1000 nM each time.
Turning to `Cc1cc(C(=O)Nc2nc3cc4c(cc3[nH]2)OC(F)(F)O4)c(C)o1` [Compound 34, N-(2,2-difluoro-5H-[1,3]dioxolo[4′,5′:4,5]benzo[1,2-d]imidazol-6-yl)-2,5-dimethylfuran-3-carboxamide], the IC50 in assay [1] and in assay [2] was > 1000 nM throughout.
Take `O=C(Nc1nc(C(=O)Nc2nc3cc4c(cc3[nH]2)OC(F)(F)O4)cs1)c1ccncc1` [Compound 21, N-(2,2-difluoro-5H-[1,3]dioxolo[4′,5′:4,5]benzo[1,2-d]imidazol-6-yl)-2-(isonicotinamido)thiazole-4-carboxamide]: the IC50 in assay [1] and in assay [2] was < 200 nM throughout.
On to `O=C(Nc1nc2cc3c(cc2[nH]1)OC(F)(F)O3)c1csc(-c2ccc(C(F)(F)F)cc2)n1` [Compound 5, N-(2,2-difluoro-5H-[1,3]dioxolo[4′,5′:4,5]benzo[1,2-d]imidazol-6-yl)-2-(4-(trifluoromethyl)phenyl)thiazole-4-carboxamide], for which the IC50 in assay [1] and in assay [2] was > 1000 nM each time.
`O=C(Nc1nc2cc3c(cc2[nH]1)OC(F)(F)O3)c1ccc(Cl)cc1Cl` [Compound 43, 2,4-dichloro-N-(2,2-difluoro-5H-[1,3]dioxolo[4′,5′:4,5]benzo[1,2-d]imidazol-6-yl)benzamide]: the IC50 in assay [1] and in assay [2] was 200 to 1000 nM throughout.
For the compound `O=C(Nc1nc2cc3c(cc2[nH]1)OC(F)(F)O3)c1ccsc1` [Compound 20, N-(2,2-difluoro-5H-[1,3]dioxolo[4′,5′:4,5]benzo[1,2-d]imidazol-6-yl)thiophene-3-carboxamide], the IC50 in assay [1] was < 200 nM; in assay [2] it was 200 to 1000 nM.
On to `O=C(Nc1nc2cc3c(cc2[nH]1)OC(F)(F)O3)c1cc(-c2ccco2)on1` [Compound 143, N-(2,2-difluoro-5H-[1,3]dioxolo[4′,5′:4,5]benzo[1,2-d]imidazol-6-yl)-5-(furan-2-yl)isoxazole-3-carboxamide], for which the IC50 in assay [1] and in assay [2] was 200 to 1000 nM throughout.
Turning to `Cc1cc(-c2nc(C(=O)Nc3nc4cc5c(cc4[nH]3)OC(F)(F)O5)cs2)no1` [Compound 141, N-(2,2-difluoro-5H-[1,3]dioxolo[4′,5′:4,5]benzo[1,2-d]imidazol-6-yl)-2-(5-methylisoxazol-3-yl)thiazole-4-carboxamide], the IC50 in assay [1] and in assay [2] was < 200 nM each time.
As for `COc1ccc(C(=O)Nc2nc3cc4c(cc3[nH]2)OC(F)(F)O4)cc1` [Compound 46, N-(2,2-difluoro-5H-[1,3]dioxolo[4′,5′:4,5]benzo[1,2-d]imidazol-6-yl)-4-methoxybenzamide], the IC50 in assay [1] and in assay [2] was 200 to 1000 nM each time.
As to `O=C(Nc1nc2cc3c(cc2[nH]1)OC(F)(F)O3)c1ccccc1OC(F)(F)F` [Compound 47, N-(2,2-difluoro-5H-[1,3]dioxolo[4′,5′:4,5]benzo[1,2-d]imidazol-6-yl)-2-(trifluoromethoxy)benzamide], the IC50 in assay [1] is 200 to 1000 nM; in assay [2], > 1000 nM.
With `O=C(Nc1nc2cc3c(cc2[nH]1)OC(F)(F)O3)c1coc(-c2ccc3c(c2)CCO3)n1` [Compound 40, N-(2,2-difluoro-5H-[1,3]dioxolo[4′,5′:4,5]benzo[1,2-d]imidazol-6-yl)-2-(2,3-dihydrobenzofuan-5-yl)oxazole-4-carboxamide], the IC50 in assay [1] and in assay [2] was > 1000 nM in each case.
Consider `O=C(Nc1nc2cc3c(cc2[nH]1)OC(F)(F)O3)c1cc([N+](=O)[O-])c[nH]1` [Compound 88, N-(2,2-difluoro-5H-[1,3]dioxolo[4′,5′:4,5]benzo[1,2-d]imidazol-6-yl)-4-nitro-1H-pyrrole-2-carboxamide], for which the IC50 in assay [1] and in assay [2] was < 200 nM each time.
`O=C(Nc1n[nH]c(C(=O)Nc2nc3cc4c(cc3[nH]2)OC(F)(F)O4)n1)c1ccc(Cl)cc1` [Compound 129, 3-(chlorobenzamido)-N-(2,2-difluoro-5H-[1,3]dioxolo[4′,5′:4,5]benzo[1,2-d]imidazol-6-yl)-1H-1,2,4-triazole-5-carboxamide]: the IC50 in assay [1] was 200 to 1000 nM; in assay [2], > 1000 nM.
As to `COc1ccccc1C(=O)Nc1nc(C(=O)Nc2nc3cc4c(cc3[nH]2)OC(F)(F)O4)co1` [Compound 12, N-(2,2-difluoro-5H-[1,3]dioxolo[4′,5′:4,5]benzo[1,2-d]imidazol-6-yl)-2-(2-methoxybenzamido)oxazole-4-carboxamide], the IC50 in assay [1] is 200 to 1000 nM; in assay [2] it was > 1000 nM.
The matching figures for `Cc1occc1C(=O)Nc1nc2cc3c(cc2[nH]1)OC(F)(F)O3` [Compound 33, N-(2,2-difluoro-5H-[1,3]dioxolo[4′,5′:4,5]benzo[1,2-d]imidazol-6-yl)-2-methylfuran-3-carboxamide]: < 200 nM and 200 to 1000 nM.
The matching figures for `O=C(Nc1nc2cc3c(cc2[nH]1)OC(F)(F)O3)c1nsc(NC(=O)c2ccccc2OC(F)(F)F)n1` [Compound 17, N-(2,2-difluoro-5H-[1,3]dioxolo[4′,5′:4,5]benzo[1,2-d]imidazol-6-yl)-5-(2-(trifluoromethoxy)benzamido)-1,2,4-thiadiazole-3-carboxamide]: < 200 nM and < 200 nM.
As to `O=C(Nc1nc2cc3c(cc2[nH]1)OC(F)(F)O3)c1ccccc1` [Compound 49, N-(2,2-difluoro-5H-[1,3]dioxolo[4′,5′:4,5]benzo[1,2-d]imidazol-6-yl)benzamide], the IC50 in assay [1] and in assay [2] was < 200 nM in each case.
As for `O=C(Nc1nc2cc3c(cc2[nH]1)OC(F)(F)O3)c1ccc(S(=O)(=O)N2CCOCC2)cc1` [Compound 117, N-(2,2-difluoro-5H-[1,3]dioxolo[4′,5′:4,5]benzo[1,2-d]imidazol-6-yl)-4-(morpholinosulfonyl)benzamide], the IC50 in assay [1] and in assay [2] was < 200 nM each time.
For the compound `Cc1nn(-c2ccccc2)c(C)c1C(=O)Nc1nc2cc3c(cc2[nH]1)OC(F)(F)O3` [Compound 15, N-(2,2-difluoro-5H-[1,3]dioxolo[4′,5′:4,5]benzo[1,2-d]imidazol-6-yl)-3,5-dimethyl-1-phenyl-1H-pyrazole-4-carboxamide], the IC50 in assay [1] and in assay [2] was > 1000 nM in each case.
Regarding `O=C(Nc1nc(C(=O)Nc2nc3cc4c(cc3[nH]2)OC(F)(F)O4)cs1)Nc1ccccc1OC(F)(F)F` [Compound 26, N-(2,2-difluoro-5H-[1,3]dioxolo[4′,5′:4,5]benzo[1,2-d]imidazol-6-yl)-2-(3-(2-(trifluoromethoxy)phenyl)ureido)thiazole-4-carboxamide], the IC50 in assay [1] and in assay [2] was < 200 nM each time.
